Laboratory results: patent US10167285B2, “Small-molecule HSP90 inhibitors” (Memorial Sloan Kettering Cancer Center, priority 2005, dated 2019)

Key:
[1] = Solubility in PBS; format: physicochemical; conditions: aqueous buffer, acid addition salt form
Procedure: (§1) Growth over 96 h was assessed.

[2] = test system: H69AR; assay: Growth over 96 h in adriamycin-resistant SCLC cells; format: cell-based; conditions: resistant to adriamycin
Procedure: as §1

[3] = test system: U251 glioma cells; assay: Clonogenic survival assay, radiosensitization; format: cell-based, human
Procedure: (§2) Colony forming efficiency was determined 10-12 days later and survival curves generated after normalizing for cell killing by Compound 9 alone. The results are summarized in FIG. 11A (Compound 9) and B (Compound 8).

[4] = test system: U87 glioma cells; assay: Clonogenic survival assay, radiosensitization; format: cell-based, human
Procedure: as §2

[5] = test system: Hsp90 lung; assay: Hsp90 competition assay, lung homogenate
Procedure: (§3) Hsp90 competition assay. Fluorescence polarization measurements were performed on an Analyst AD instrument (Molecular Devices, Sunnyvale, Calif.). […] The assay buffer (HFB) contained 20 mM HEPES (K) pH 7.3, 50 mM KCl, 5 mM MgCl2, 20 mM Na2MoO4, 0.01% NP40. Before each use, 0.1 mg/mL bovine gamma globulin (BGG) (Panvera Corporation, Madison, Wis.) and 2 mM DTT (Fisher Biotech, Fair Lawn, N.J.) were freshly added. […] Cell lysates were prepared rupturing cellular membranes by freezing at −70° C. and dissolving the cellular extract in HFB with added protease and phosphotase inhibitors. Organs were harvested from a healthy mouse and homogenized in HFB. Saturation curves were recorded in which GM-BODIPY (5 nM) was treated with increasing amounts of cellular lysates.

[6] = test system: Hsp90 SKBr3; assay: Hsp90 competition assay, SKBr3 cell lysate; conditions: read-out: EC50 Hsp90 SKBr3
Procedure: Hsp90 competition assay. Fluorescence polarization measurements were performed on an Analyst AD instrument (Molecular Devices, Sunnyvale, Calif.). […] The assay buffer (HFB) contained 20 mM HEPES (K) pH 7.3, 50 mM KCl, 5 mM MgCl2, 20 mM Na2MoO4, 0.01% NP40. Before each use, 0.1 mg/mL bovine gamma globulin (BGG) (Panvera Corporation, Madison, Wis.) and 2 mM DTT (Fisher Biotech, Fair Lawn, N.J.) were freshly added. GM-BODIPY was synthesized as previously reported^23a and was dissolved in DMSO to form 10 μM solutions. Recombinant Hsp90α was purchased from Stressgen Bioreagents (cat. No. SPP-776), (Victoria, Canada). Cell lysates were prepared rupturing cellular membranes by freezing at −70° C. and dissolving the cellular extract in HFB with added protease and phosphotase inhibitors. […] Saturation curves were recorded in which GM-BODIPY (5 nM) was treated with increasing amounts of cellular lysates.

[7] = test system: Hsp90 heart; assay: Hsp90 competition assay, heart homogenate
Procedure: as §3

[8] = test system: small cell lung tumors; assay: Tumor growth inhibition in small cell lung cancer model; format: in vivo
[9] = test system: Hsp90 client proteins (Raf-1, Akt), PARP cleavage; assay: Pharmacodynamics in small cell lung tumors; format: in vivo
[10] = test system: SKBr3 breast cancer cells; assay: Growth inhibition, sulforhodamine B assay; format: cell-based, human; conditions: Homo sapiens, SK-BR-3, 72 h, average of 3 measurements
Procedure: Cell culture. The human breast cancer cell lines SKBr3 and MDA-MB-468 were a gift from Dr. Neal Rosen (MSKCC). Cells were maintained in 1:1 mixture of DME:F12 supplemented with 2 mM glutamine, 50 units/mL penicillin, 50 […] and 10% heat inactivated fetal bovine serum (Gemini Bioproducts #100-10b) and incubated at 37° C., 5% CO2. Growth assays. Growth inhibition studies were performed using the sulforhodamine B assay as previously described.^29 In summary, experimental cultures were plated in microtiter plates (Nunc #167008). One column of wells was left without cells to serve as the blank control. Cells were allowed to attach overnight. The following day, growth medium having either drug or DMSO at twice the desired initial concentration was added to the plate in triplicate and was serially diluted at a 1:1 ratio in the microtiter plate. After 72 h of growth, the cell number in treated versus control wells was estimated after treatment with 50% trichloroacetic acid and staining with 0.4% sulforhodamine B in 1% acetic acid. […] Normal human renal proximal tubular epithelial (RPTEC) cells were purchased pre-seeded in 96-well plates (Clonetics, CC-3190). Upon receipt, cells were placed in a humidified incubator at 37° C., 5% CO2 and allowed to equilibrate for 3 h. Media was removed by suction and replaced with fresh media provided by the manufacturer. Cells were then treated with either drugs or DMSO for 72 h and the IC50 values were determined as described above.

[11] = test system: MDA-MB-468 cells; assay: Anti-mitotic assay (Tg-3 microtiter immunoassay); format: cell-based, human; conditions: 24 h, concentration dependent increase in Tg-3 luminescence
Procedure: Anti-mitotic assay. Black, clear-bottom microtiter 96-well plates (Corning Costar #3603) were used to accommodate experimental cultures. MDA-MB-468 cells were seeded in each well at 8,000 cells per well in growth medium (100 μL), and allowed to attach overnight at 37° C. and 5% CO2. Growth medium (100 μL) with drug or vehicle (DMSO) was gently added to the wells, and the plates were incubated at 37° C. and 5% CO2 for 24 h. Wells were washed with ice-cold TBST (2×200 μL). A house vacuum source attached to an eight-channel aspirator was used to remove the liquid from the 96-well plates. Ice-cold methanol (100 μL) was added to each well, and the plate was placed at 4° C. for 5 min. Methanol was removed by suction and plates were washed with ice-cold TBST (2×200 μL). Plates were further incubated with SuperBlock® blocking buffer (Pierce #37535) (200 μL) for 2 h at RT. The Tg-3 antibody (gift of Dr. Davies, Albert Einstein College of Medicine) diluted 1:200 in SuperBlock® was placed in each well (100 μL) except the control column that was treated with control antibody (Mouse IgM, NeoMarkers, NC-1030-P). After 72 h, wells were washed with ice-cold TBST (2×200 μL). […] Un-reacted antibody was removed by washing the plates with ice-cold TBST (3×200 μL) for 5 min on a shaker. The ECLTM Western Blotting Detection Reagents 1 and 2 in 1:1 mix (100 μL) was placed in each well and the plates were read immediately in an Analyst AD plate reader (Molecular Devices). Luminescence readings were imported into SOFTmax PROR 4.3.1. Anti-mitotic activity was defined as a concentration dependent increase in luminescence readings in compound-treated wells as compared to DMSO only treated wells.

[12] = test system: SKI-Chen; assay: Growth over 96 h in therapy-resistant SCLC cells; format: cell-based; conditions: from a patient who failed every conventional therapy
Procedure: as §1

[13] = Plasma and tumor levels in small cell lung cancer model; conditions: tumor
[14] = Blood brain barrier penetration

## CC(C)NCCCn1c(Sc2cc3c(cc2I)OCO3)nc2c(N)ncnc21 [Example 9, 8-(6-Iodo-benzo[1,3]dioxol-5-ylsulfanyl)-9-(3-isopropylamino-propyl)adenine]
[1]
  solubility: > 5 mM
[2]
  activity in resistant SCLC cell line: retains its activity
[3]; U251 cells
  surviving fraction after compound treatment only: 0.86
[3]; range across U251 and U87, 16 h exposure before X rays
  dose enhancement factors: 1.4-1.6
[4]
  surviving fraction after compound treatment only: 0.68
[5]; ratio of EC50 Hsp90 values
  Lung/SKBr3: 48
[5]; read-out: EC50 Hsp90 lung, normal tissue
  EC50: 2400 ± 240 nM
[6]
  EC50: 50.4 ± 4 nM
[7]; ratio of EC50 Hsp90 values
  Heart/SKBr3: 140
[7]; read-out: EC50 Hsp90 heart, normal tissue
  EC50: 6900 ± 150 nM
[8]; comparable to 17AAG, FIG. 9D
  tumor growth: efficiently inhibited the growth
[8]; in vivo
  toxicity to the host: without toxicity
[9]; FIG. 9C
  apoptosis of the tumor (PARP cleavage): induces significant apoptosis
[9]; one administered dose
  Raf-1 and Akt in tumor: efficiently degraded or inactivated
[10]
  IC50: 50 ± 5 nM
[11]
  Anti-mitotic: Yes
[12]
  activity in resistant SCLC cell line: retains its activity
[13]
  retention in tumors at pharmacologic doses: more than 36 h
[14]
  crossing of the blood brain barrier: ability to cross the blood brain barrier
